The text below walks through data of PMC6467533 (Chembiochem : a European journal of chemical biology, 2018).

In the experiment the target is Mtb TPP (Mycobacterium tuberculosis, UniProt P9WFZ5). In kind it is biochemical.
Chain of Mtb TPP (P9WFZ5 whole entry, looked up): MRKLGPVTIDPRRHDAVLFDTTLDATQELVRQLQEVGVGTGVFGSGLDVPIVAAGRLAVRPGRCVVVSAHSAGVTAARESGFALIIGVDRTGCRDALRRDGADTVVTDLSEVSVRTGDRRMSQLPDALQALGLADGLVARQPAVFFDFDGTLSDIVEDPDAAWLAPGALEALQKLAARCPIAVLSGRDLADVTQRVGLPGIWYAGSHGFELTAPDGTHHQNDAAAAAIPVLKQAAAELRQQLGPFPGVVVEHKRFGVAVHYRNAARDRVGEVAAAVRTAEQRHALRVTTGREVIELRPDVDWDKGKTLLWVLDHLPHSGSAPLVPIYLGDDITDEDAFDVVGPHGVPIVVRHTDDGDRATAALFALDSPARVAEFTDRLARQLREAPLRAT

`O=P(O)(O)C[C@H]1O[C@H](O[C@H]2O[C@H](CO)[C@@H](O)[C@H](O)[C@H]2O)[C@H](O)[C@@H](O)[C@@H]1O` [TMP, 6-Deoxy-6-(phosphonic acid)-α,α’-trehalose]: the “IC50 fold worse than the determined T6P KM, Mtb TPP” value is given as 2.8 fold.
